Results taken from paper PMC7669867, “Synthesis and initial screening of lactate dehydrogenase inhibitor activity of 1,3-benzodioxole derivatives” (Scientific Reports, 2020).
Where “and” joins values, the source holds several entries; their conditions need not be identical. Identical values can stand only once. Like-named read-outs stand apart in the source and are kept apart here.

Columns and labels:
[1] = system: LDHA; conditions: cited from earlier work; for LDHA inhibitory activity: at concentrations up to 1 mM
[2] = biological target: T1, purified recombinant human LDHB protein (Homo sapiens, UniProt P07195); experiment: In vitro LDHB activity assay (NAD+ converted to NADH); assay type: biochemical
T1 construct: purchased Abcam
T1 sequence (P07195 whole entry): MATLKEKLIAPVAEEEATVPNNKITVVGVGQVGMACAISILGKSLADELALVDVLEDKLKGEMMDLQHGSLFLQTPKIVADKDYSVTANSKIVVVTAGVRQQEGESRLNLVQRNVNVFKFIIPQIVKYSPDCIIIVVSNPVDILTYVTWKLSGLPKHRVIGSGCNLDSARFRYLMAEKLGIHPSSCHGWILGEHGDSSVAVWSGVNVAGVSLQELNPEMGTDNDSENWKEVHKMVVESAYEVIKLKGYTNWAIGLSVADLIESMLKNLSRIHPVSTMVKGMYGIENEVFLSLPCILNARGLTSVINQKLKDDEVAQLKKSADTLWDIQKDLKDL
Method: (§1) The in vitro evaluation of the LDHA inhibitor activities of the synthesized compounds was determined by the NADH intensity decrease through oxidation in a solution of HEPES-K^+, NADH, and pyruvate at a pH = 7.2. The NADH oxidation fluorescence intensity was measured using a spectrofluorometer at 340 nm excitation and 460 nm emission wavelengths, representing the NADH-specific fluorescence spectrum. Furthermore, the in vitro evaluation of the LDHB inhibitor activity was determined as a reverse reaction, which converts lactate to pyruvate by determining the amount of NAD^+ converted to NADH using the above-mentioned spectrophotometric experimental setting (Table 2). Based on this analysis, the half-maximal inhibitory concentration (IC50) of the synthesized compounds was obtained.
In vitro analysis was determined the amount of NAD^+ converted to NADH[33]. The assay mixture composed of 100 mM Tris–HCl buffer (pH 8.0), 200 mM sodium L-lactate, 2.5 mM NAD^+, and 100 ng of purified recombinant human LDHB protein (Abcam). The fluorescence intensity of NADH was measured using a spectrofluorometer (Spectramax M2) at 340 nm as excitation wavelength and 460 nm as emission wavelength which is the specific fluorescence of NADH.

[3] = system: human lung cancer A549 cells; experiment: Cell viability MTT assay, A549; assay type: cell-based; conditions: read-out: A549 (GI50)
Method: (§2) The human pancreatic cancer cell lines, PANC-1 and MiaPaCa-2, human lung cancer A549 cells, human breast cancer MCF-7, and human glioma U87 cells were obtained from the Korean cell line bank (Seoul, Korea). The cells were cultured in Dulbecco’s Modified Eagle Medium (DMEM; ThermoFisher Scientific, Waltham, MA) supplemented with 10% fetal bovine serum (FBS; Sigma-Aldrich) and 1% penicillin/streptomycin (ThermoFisher Scientific). The cells were cultured at 37 °C in an atmosphere containing 5% CO2.
(§3) The potential cytotoxicity of compounds at different concentrations was evaluated using the MTT assay. Briefly, cancer cell lines were pre-incubated in 96-well plates with compounds for 48 h. Subsequently, MTT working solution (2 mg/mL in phosphate buffer solution) was added to each well and the plate was incubated for 4 h at 37 °C in an atmosphere containing 5% CO2. Then, the conditioned media were aspirated, and the formed formazan crystals in living cells were quantified using the microplate reader (Spectramax M2) at 540 nm. The concentrations that produce 50% cell growth inhibition (GI50) were calculated by curves constructed by the plot of cell survival by an assistant of PRISM software (GraphPad, San Diego, CA).

[4] = system: human glioma U87 cells; experiment: Cell viability MTT assay, U87; assay type: cell-based; conditions: U-87 MG, 48 h, read-out: U87 (GI50)
Method: as §2, §3

[5] = system: human pancreatic cancer MiaPaCa-2 cells; experiment: Cell viability MTT assay, MiaPaCa-2; assay type: cell-based; conditions: read-out: MiaPaCa-2 (GI50)
Method: as §2, §3

[6] = system: human breast cancer MCF-7; experiment: Cell viability MTT assay, MCF-7; assay type: cell-based; conditions: read-out: MCF-7 (GI50)
Method: as §2, §3

[7] = biological target: T2, purified recombinant human LDHA protein (Homo sapiens, UniProt P00338); experiment: In vitro LDHA inhibitor activity (NADH fluorescence decrease); assay type: biochemical; conditions: for LDHB/LDHA: ratio of LDHB IC50 to LDHA IC50 (selectivity)
T2 construct: purchased Abcam
Method: as §1
In vitro evaluation on LDHA inhibitor activity. LDHA activity assay was performed in accordance with previous studies[16],[18]. Briefly, the various concentrations of compounds were incubated with reaction buffer containing 20 mM HEPES-K^+, 20 μM NADH, 2 mM pyruvate, and 100 ng of purified recombinant human LDHA protein (Abcam, Cambridge, UK). The fluorescence of NADH, which has an excitation wavelength of 340 nm and an emission wavelength of 460 nm, was detected using a microplate spectrofluorometer (Spectramax M2; Molecular Devices, Sunnyvale, CA).

[8] = system: human pancreatic cancer PANC-1 cells; experiment: Cell viability MTT assay, PANC-1; assay type: cell-based; conditions: read-out: PANC-1 (GI50)
Method: as §2, §3

[9] = in vitro; assay type: in vitro ADME, human; conditions: human, plasma
Method: (§4) Human and rat plasma (Sigma-Aldrich) are incubated at 37 °C with test compounds. During the incubation, aliquots are withdrawn at 0, 30, 120 min time points and acetonitrile solution (containing chlorpropamide) is added. After vortexing, the aliquots are centrifuged and the supernatant is withdrawn for analysis by LC–MS/MS.

[10] = in vitro; assay type: in vitro ADME, rat; conditions: rat, plasma
Method: as §4

[11] = synthesized compounds, read-out: LDHB IC50
[12] = synthesized compounds, read-out: LDHA IC50
[13] = Homo sapiens, PANC-1, MTT, 48 h

IC50 [2, 11] [µM]	GI50 ([3]; A549, MTT, 48 h) [µM]	GI50 ([4]; MTT) [µM]	GI50 ([5]; MIA PaCa-2, MTT, 48 h) [µM]	GI50 ([6]; MCF7, MTT, 48 h) [µM]	IC50 [7, 12] [µM]	GI50 [8, 13] [µM]	Molecule	also measured
79	> 1000	> 1000	> 1000	> 1000	> 1000	> 1000	O=C(OCc1ccc2c(c1)OCO2)c1ccc(Br)cc1 [Compound 1]	
151	> 1000	> 1000	> 1000	> 1000	> 1000	269	O=C(OCc1ccc2c(c1)OCO2)c1ccc(I)cc1 [Compound 3]	
7.87	> 1000	380	> 1000	729	182	203	Nc1cccc(C(=O)OCc2ccc3c(c2)OCO3)c1 [Compound 4]	LDHB/LDHA [7]: 0.043
> 1000	> 1000	> 1000	> 1000	> 1000	478	644	O=C(OCc1ccc2c(c1)OCO2)c1ccc(F)cc1 [Compound 5]	
130	> 1000	> 1000	> 1000	> 1000	452	> 1000	O=C(CC(F)(F)F)OCc1ccc2c(c1)OCO2 [Compound 6]	LDHB/LDHA [7]: 0.29
> 1000	> 1000	> 1000	> 1000	> 1000	843	243	O=C(OCc1ccc2c(c1)OCO2)c1ccccc1 [Compound 7]	LDHB/LDHA [7]: > 1.18
248	> 1000	> 1000	> 1000	> 1000	> 1000	86.5	Cc1ccc(C(=O)OCc2ccc3c(c2)OCO3)cc1 [Compound 8]	

The remaining lines, values behind:

Molecule	IC50 [2, 11] [µM]	GI50 ([3]; A549, MTT, 48 h) [µM]	GI50 ([4]; MTT) [µM]	GI50 ([5]; MIA PaCa-2, MTT, 48 h) [µM]	GI50 ([6]; MCF7, MTT, 48 h) [µM]	IC50 [7, 12] [µM]	GI50 [8, 13] [µM]	also measured
c1ccc2c(c1)OCO2 [1,3-benzodioxole]								LDHA inhibitory activity [1]: did not exhibit an LDHA inhibitory activity
O=C(OCc1ccc2c(c1)OCO2)c1ccc([Se]c2ccccc2)cc1 [Compound 9]								IC50 ([2]; LDHB IC50, synthesized compounds): 1000 µM and 151 µM; GI50 ([3]; A549, 48 h): 925 µM; GI50 [4]: > 1000 µM; GI50 ([5]; MIA PaCa-2, 48 h): 108 µM; GI50 ([6]; MCF7, 48 h): 455 µM; IC50 [7]: > 1000 µM; GI50 ([8]; Homo sapiens, PANC-1, 48 h): 21.1 µM
CCOC(=O)[C@H](CCc1ccccc1)N[C@@H](C)C(=O)N1CCC[C@H]1C(=O)O [Enalapril]								remaining at 0.5 h [9]: 95%; remaining at 2 h [9]: 93.7%; remaining at 0.5 h [10]: 37.7%; remaining at 2 h [10]: 1.8%
COc1ncc(-c2ccc3c(Nc4cc(Oc5cc(F)cc(F)c5)cc(C(=O)O)c4)c(S(=O)(=O)NC4CC4)cnc3c2)c(OC)n1 [GSK2837808A, reference compound]								GI50 ([8]; MTT, 48 h): 11.3 µM
C[C@H](Cc1ccc2c(c1)OCO2)[C@@H](C)Cc1ccc2c(c1)OCO2 [Machilin A]								IC50 [1]: 84 µM
CCN(CC)CCOC(=O)c1ccc(N)cc1 [Procaine]								remaining at 5 min [9]: 1.5%; remaining at 10 min [9]: 0.4%; remaining at 0.5 h [10]: 89.8%; remaining at 2 h [10]: 52.6%
OCc1ccc2c(c1)OCO2 [piperonyl alcohol]								LDHA inhibitory activity [1]: did not exhibit an LDHA inhibitory activity
GNE140 [reference compound]								GI50 ([8]; MTT, 48 h): 11.6 µM and 11.9 µM
